Results: publication PMC8952364, “Polyphenols as Inhibitors of Antibiotic Resistant Bacteria—Mechanisms Underlying Rutin Interference with Bacterial Virulence” (Pharmaceuticals, 2022)
≈ marks a conversion by molar mass, not a printed value. Like-named read-outs stand apart in the source and are kept apart here.

Assays:
[1] = system: Methicillin resistant S. aureus IBRS MRSA 011; experiment: Antimicrobial microdilution assay (MIC/MBC); format: cell-based, Staphylococcus aureus; conditions: for MIC: 37 °C, 24 h; for MBC: subcultivation, 24 h at 37 °C
Description: (§1) The bacterial suspension (0.5 Mc Farland) was prepared, and twenty-fold dilutions of these suspensions were mixed in a 1:10 ratio with the corresponding polyphenol dilution (0.0039–1 mg/mL). Microtiter plates were incubated at 37 °C for 24 h. The lowest concentrations without visible growth (under a binocular microscope) were defined as MICs. The bactericidal concentrations (MBCs) were determined by serial subcultivation of 2 μL of the well’s content and further incubation for 24 h at 37 °C. Streptomycin (SigmaAldrich, Darmstadt, Germany) was used as a positive control. The polyphenols were obtained from Extrasynthese, Rhone, France (rutin, isoquercitrin) and SigmaAldrich, Germany (hesperetin, hesperidin, naringenin, naringin, taxifolin, morin, chlorogenic acid, ferulic acid, p-coumaric acid, and gallic acid). The stock compounds were prepared in ethanol (30%), and adequate ethanol concentrations were used as the negative control in the assays. Experiments were done in triplicate.

[2] = system: P. aeruginosa IBRS P001; experiment: Antimicrobial microdilution assay (MIC/MBC); format: cell-based, Pseudomonas aeruginosa; conditions: for MIC: 37 °C, 24 h; for MBC: subcultivation, 24 h at 37 °C
Description: as §1

[3] = system: P. aeruginosa MMA83; experiment: Antimicrobial microdilution assay (MIC/MBC); format: cell-based, Pseudomonas aeruginosa; conditions: for MIC: 37 °C, 24 h; for MBC: subcultivation, 24 h at 37 °C
Description: as §1

[4] = system: E. coli IBRS E003; experiment: Antimicrobial microdilution assay (MIC/MBC); format: cell-based, Escherichia coli; conditions: for MIC: 37 °C, 24 h; for MBC: subcultivation, 24 h at 37 °C
Description: as §1

[5] = system: E. coli IMD989; experiment: Antimicrobial microdilution assay (MIC/MBC); format: cell-based, Escherichia coli; conditions: for MIC: 37 °C, 24 h; for MBC: subcultivation, 24 h at 37 °C
Description: as §1

[6] = system: A. baumannii 6077/12; experiment: Antimicrobial microdilution assay (MIC/MBC); format: cell-based, Acinetobacter baumannii; conditions: for MIC: 37 °C, 24 h; for MBC: subcultivation, 24 h at 37 °C
Description: as §1

[7] = system: A. baumannii S2/2; experiment: Antimicrobial microdilution assay (MIC/MBC); format: cell-based, Acinetobacter baumannii; conditions: for MIC: 37 °C, 24 h; for MBC: subcultivation, 24 h at 37 °C
Description: as §1

[8] = system: K. pneumoniae IT977; experiment: Antimicrobial microdilution assay (MIC/MBC); format: cell-based, Klebsiella pneumoniae; conditions: for MIC: 37 °C, 24 h; for MBC: subcultivation, 24 h at 37 °C
Description: as §1

[9] = system: K. pneumoniae Ni9; experiment: Antimicrobial microdilution assay (MIC/MBC); format: cell-based, Klebsiella pneumoniae; conditions: for MIC: 37 °C, 24 h; for MBC: subcultivation, 24 h at 37 °C
Description: as §1

[10] = system: A. xylosoxidans 37F; experiment: Antimicrobial microdilution assay (MIC/MBC); format: cell-based, Achromobacter xylosoxidans; conditions: for MIC: 37 °C, 24 h; for MBC: subcultivation, 24 h at 37 °C
Description: as §1

[11] = system: S. infantis 1371/1; experiment: Antimicrobial microdilution assay (MIC/MBC); format: cell-based, Salmonella Infantis; conditions: for MIC: 37 °C, 24 h; for MBC: subcultivation, 24 h at 37 °C
Description: as §1

[12] = system: P. aeruginosa IBRS P001 biofilm; experiment: Crystal violet antibiofilm assay (biofilm formation); format: cell-based, Pseudomonas aeruginosa; conditions: MIC and sub-MIC, 24 h, crystal violet, Figure 1
Description: After incubation, each well was washed twice with sterile PBS (phosphate-buffered saline, pH 7.4) and fixed with methanol for 10 min. After removal of methanol the plate was air-dried. The biofilm was stained with 0.1% crystal violet (Bio-Merieux, Marcy l’Etoile, France) for 30 min. The plate was washed with water, air dried, and the stain was dissolved with 200 μL of 96% ethanol (Zorka, Sabac, Serbia). The absorbance was read at 620 nm on a Multiskan™ FC microplate photometer (Thermo Scientific™, Waltham, MA, USA). The results are presented as biofilm forming capacity (%) compared to control.

[13] = system: HaCaT cells; experiment: Cytotoxicity in HaCaT cell line (crystal violet assay); format: cell-based, human; conditions: HaCaT
Description: For determination of the polyphenols’ cytotoxic effect, a crystal violet assay was used, with modifications. The cytotoxic effect of polyphenols was analyzed on spontaneously immortalized human skin keratinocytes (HaCaT, AddexBio No. T0020001, San Diego, CA, USA) cell lines. […] Cells (1 × 10^4 cells/well) were seeded in a 96-well plate (Sarstedt, Nümbrecht, Germany) 24 h before treatment. […] Cells were incubated with the compounds for 24 h. […] After crystal violet was removed, the plates were washed in a stream of tap water and left to air-dry at room temperature for 24 h. The absorbance was measured in a microplate reader (Multiskan™ FC Microplate Photometer, Thermo Scientific™) at 590 nm. The results were expressed as IC50 value in μg/mL. The criterion used to categorize the cytotoxic activity polyphenols was as follows: […] All analyses were performed in triplicate; each replicate was also quantified three times. Data were expressed as mean standard deviation, where applicable.

[14] = system: eleven antibiotic resistant strains of bacteria; experiment: Antimicrobial assay, summary over the examined strains; format: cell-based
Description: as §1

[15] = system: E. coli (0157:H7 ATCC 51659); set-up: method as in PMID 34073447; conditions: cited from earlier work
[16] = system: S. aureus (ATCC 25923); set-up: method as in PMID 34073447; conditions: cited from earlier work
[17] = system: P. aeruginosa (NRRLB-272); set-up: method as in PMID 34073447; conditions: cited from earlier work
[18] = system: S. aureus Newman and S. aureus Newman Δcoa; set-up: method as in PMID 32130467; conditions: cited from earlier work
[19] = system: S. aureus clinical isolate; set-up: method as in doi:10.5937/leksir2040057K; conditions: cited from earlier work
[20] = system: S. aureus ATCC 11632; set-up: method as in doi:10.5937/leksir2040057K; conditions: cited from earlier work

Work on `COc1ccc([C@@H]2CC(=O)c3c(O)cc(O[C@@H]4O[C@H](CO[C@@H]5O[C@@H](C)[C@H](O)[C@@H](O)[C@H]5O)[C@@H](O)[C@H](O)[C@H]4O)cc3O2)cc1O` [Hesperidin, hesperidin] yielded an MIC [1] of 500 µg/mL (≈ 819 µM), an MBC [1] of 1000 µg/mL (≈ 1640 µM) and an MIC [2] of 500 µg/mL (≈ 819 µM). For the same compound, the MBC [2] was 1000 µg/mL (≈ 1640 µM), the MIC [3] was 1000 µg/mL (≈ 1640 µM) and the MBC [3] was 1000 µg/mL (≈ 1640 µM). For the same compound, the MIC [4] was over 1000 µg/mL, the MBC [4] was over 1000 µg/mL and the MIC [5] was over 1000 µg/mL. For the same compound, the MBC [5] was over 1000 µg/mL, the MIC [6] was 500 µg/mL (≈ 819 µM) and the MBC [6] was 500 µg/mL (≈ 819 µM). The MIC [7] was 500 µg/mL (≈ 819 µM), the MBC [7] was 500 µg/mL (≈ 819 µM) and the MIC [8] was 1000 µg/mL (≈ 1640 µM). It also gave an MBC [8] of 1000 µg/mL (≈ 1640 µM), an MIC [9] of 1000 µg/mL (≈ 1640 µM) and an MBC [9] of 1000 µg/mL (≈ 1640 µM). It also gave an MIC [10] of 1000 µg/mL (≈ 1640 µM), an MBC [10] of 1000 µg/mL (≈ 1640 µM) and an MIC [11] of over 1000 µg/mL. For the same compound, the MBC [11] was over 1000 µg/mL, the “reduction of biofilm formation (biomass), in words” value [12] was “significant (****, p < 0.0001) reduction” and the “cytotoxicity towards HaCaT, in words” value ([13]; 24 h) was “non-cytotoxic properties”. For the same compound, the “IC50 (compound concentration that inhibited 50% of the cell growth)” value ([13]; 24 h treatment, crystal violet) was over 1000 µg/mL, the cytotoxicity category ([13]; maximal tested concentrations (1 mg/mL)) was “no cytotoxicity (IC50 > 501 µg/mL = no cytotoxicity)” and the “MIC towards a range of antibiotic-resistant bacterial strains” value ([14]; summary of Table 1) was at least 500 µg/mL. The MIC [15] was 1130 µg/mL (≈ 1850 µM), the MIC [16] was 1530 µg/mL (≈ 2510 µM) and the MIC [17] was 1270 µg/mL (≈ 2080 µM).
`O=c1c(O[C@@H]2O[C@H](CO)[C@@H](O)[C@H](O)[C@H]2O)c(-c2ccc(O)c(O)c2)oc2cc(O)cc(O)c12` [Isoquercitrin, isoquercitrin] gave an MIC ([1]; Staphylococcus aureus, MRSA, read-out: MIC) of 500 µg/mL (≈ 1080 µM), an MBC ([1]; Staphylococcus aureus, MRSA, read-out: MBC) of 1000 µg/mL (≈ 2150 µM) and an MIC ([2]; Pseudomonas aeruginosa, IBRSP001, read-out: MIC) of 250 µg/mL (≈ 538 µM). For the same compound, the MBC ([2]; Pseudomonas aeruginosa, IBRSP001, read-out: MBC) was 500 µg/mL (≈ 1080 µM), the MIC ([3]; Pseudomonas aeruginosa, MMA83, read-out: MIC) was 250 µg/mL (≈ 538 µM) and the MBC ([3]; Pseudomonas aeruginosa, MMA83, read-out: MBC) was 250 µg/mL (≈ 538 µM). For the same compound, the MIC ([4]; Escherichia coli, IBRSE003, read-out: MIC) was over 1000 µg/mL, the MBC ([4]; Escherichia coli, IBRSE003, read-out: MBC) was over 1000 µg/mL and the MIC ([5]; Escherichia coli, IMD989, read-out: MIC) was 1000 µg/mL (≈ 2150 µM). The MBC ([5]; Escherichia coli, IMD989, read-out: MBC) was 1000 µg/mL (≈ 2150 µM), the MIC ([6]; Acinetobacter baumannii, 6077/12, read-out: MIC) was 250 µg/mL (≈ 538 µM) and the MBC ([6]; Acinetobacter baumannii, 6077/12, read-out: MBC) was 500 µg/mL (≈ 1080 µM). The MIC ([7]; Acinetobacter baumannii, S2/2, read-out: MIC) was 500 µg/mL (≈ 1080 µM), the MBC ([7]; Acinetobacter baumannii, S2/2, read-out: MBC) was 500 µg/mL (≈ 1080 µM) and the MIC ([8]; Klebsiella pneumoniae, IT977, read-out: MIC) was 1000 µg/mL (≈ 2150 µM). For the same compound, the MBC ([8]; Klebsiella pneumoniae, IT977, read-out: MBC) was 1000 µg/mL (≈ 2150 µM), the MIC ([9]; Klebsiella pneumoniae, NI9, read-out: MIC) was 500 µg/mL (≈ 1080 µM) and the MBC ([9]; Klebsiella pneumoniae, NI9, read-out: MBC) was 1000 µg/mL (≈ 2150 µM). For the same compound, the MIC ([10]; Achromobacter xylosoxidans, 37F, read-out: MIC) was 500 µg/mL (≈ 1080 µM), the MBC ([10]; Achromobacter xylosoxidans, 37F, read-out: MBC) was 500 µg/mL (≈ 1080 µM) and the MIC ([11]; Salmonella enterica, 1371/1, read-out: MIC) was 1000 µg/mL (≈ 2150 µM). The MBC ([11]; Salmonella enterica, 1371/1, read-out: MBC) was 1000 µg/mL (≈ 2150 µM), the “reduction of biofilm formation (biomass), in words” value [12] was “promising (***, p ≤ 0.001) potential to reduce the biomass” and the IC50 ([13]; Homo sapiens, 24 h, read-out: IC50 (compound concentration that inhibited 50% of the cell growth)) was over 1000 µg/mL. For the same compound, the MIC ([14]; antibiotic resistant strains of Table 1, read-out: lowest MIC among the examined strains) was 250 µg/mL (≈ 538 µM), the “MIC (no inhibitory activity up to)” value [18] was over 1024 µg/mL and the MIC [19] was 200 µg/mL (≈ 431 µM). The MIC [20] was 100 µg/mL (≈ 215 µM).
